From paper PMC12401824, “Studies on the impact of modifications at the Gln-Trp site in RM2-based GRPR ligands” (EJNMMI Research, 2025)
“And” between values parts separate entries of the source, which are not always exact repeats. Equal entries are not always repeated. “Also recorded” adds a separate entry of the source. Where two headings read alike, the source gives them in different places. Starred links: 1 amine or outer side, 2 acyl side, 3 side chain; linkers in the order of their positions; H or OH if unused. Non-standard residues stand in square brackets, D forms with d. Residues, ends and D or L forms follow the SMILES beside them. *: point of attachment. DOTA = O=C(O)CN1CCN(CC(=O)O)CCN(CC(=O)*)CCN(CC(=O)O)CC1; Sta = CC(C)C[C@H](N)[C@@H](O)CC(=O)O; Bta = N[C@@H](Cc1csc2ccccc12)C(=O)O; X1 = O=C(CN1CCC(N[*:1])CC1)[*:2]; hSer = N[C@@H](CCO)C(=O)O

Assays:
[1] = Metabolic stability in vivo in mice (intact tracer in serum); conditions: ^177Lu-labeled, healthy mice
Experimental: Metabolic stability in vivo was determined according to a previously published protocol by injecting approximately 30–40 MBq (1 nmol, 150 µL) of the ^177Lu-labeled compounds into the tail vein of anesthetized CB17-SCID mice (n = 3).

[2] = Biodistribution in PC-3 tumor-bearing CB17-SCID mice; assay type: in vivo; conditions: mouse, intravenous, 100 pmol, ^177Lu-labeled, 100 pmol, n = 4; for tissue uptake at 1 h: 1 h p.i.; for tissue uptake at 24 h: 24 h p.i.
Experimental: To establish tumor xenografts, PC-3 cells (5.0 × 10^6 cells per 200 µL) were suspended in a 1/1 mixture (v/v) of Dulbecco’s modified eagle's medium/Ham’s F-12 with Glutamax-I (v/v = 1/1) and Cultrex® Basement Membrane Matrix Type 3 (Trevigen Inc., Gaithersburg, MD, USA) and inoculated subcutaneously onto the right shoulder of CB17-SCID mice (Charles River Laboratories International Inc., Sulzfeld, Germany). Mice (n = 4) were used for experiments when tumor volume has reached 125–500 mm^3 (2–3 weeks after inoculation).
Biodistribution. […] (n = 4), respectively. Selected organs were removed, weighted and measured in a γ-counter.

PC-3 tumor xenograft = assay: Competition study: co-injection of excess Lu-RM2 in PC-3 tumor-bearing mice; assay type: in vivo; conditions: ^177Lu-labeled, 100 pmol; co-injection of 40 nmol Lu-RM2; 1 h p.i.; n = 3
Experimental: µPET/CT imaging. Imaging studies were performed at a MILabs VECTor^4 small-animal SPECT/PET/OI/CT device (MILabs, Utrecht, the Netherlands). Data were reconstructed using the MILabs Rec software (version 10.02) and a pixel-based Similarity-Regulated Ordered Subsets Expectation Maximization (SROSEM) algorithm, followed by data analysis using the PMOD4.0 software (PMOD TECHNOLOGIES LLC, Zurich, Switzerland). […] Static images were recorded at 1 h p.i. with an acquisition time of 45–60 min (3–4 frames, 15 min each) using the HE-GP-RM collimator and a step-wise multi-planar bed movement. Depending on the size of the mouse, either four or eight bed position were required, with an imaging time of ~ 1.8 min or ~ 3.6 min per bed position. For competition studies, 3.62 mg/kg (40 nmol) of Lu-RM2 (10^−3 M in PBS) were co-administered.
Figure S6. […] Data are expressed as mean ± SD (n = 4). […] Data are expressed as mean ± SD (n = 3).

[3] = adrenal, read-out: Uptake in Adrenal
[4] = blood, read-out: Uptake in Blood
[5] = heart, read-out: Uptake in Heart
[6] = intestine, read-out: Uptake in Intestine
[7] = kidney, read-out: Uptake in Kidney
[8] = liver, read-out: Uptake in Liver
[9] = muscle, read-out: Uptake in Muscle
[10] = pancreas, read-out: Uptake in Pancreas
[11] = spleen, read-out: Uptake in Spleen
[12] = stomach, read-out: Uptake in Stomach
[13] = tumor, read-out: Uptake in Tumor

In the case of `CC(C)C[C@H](NC(=O)C[C@H](O)[C@H](CC(C)C)NC(=O)[C@H](Cc1c[nH]cn1)NC(=O)CNC(=O)[C@@H](NC(=O)[C@H](C)NC(=O)[C@H](Cc1c[nH]c2ccccc12)NC(=O)[C@H](CCO)NC(=O)[C@@H](Cc1ccccc1)NC(=O)CN1CCC(NC(=O)CN2CCN(CC(=O)O)CCN(CC(=O)O)CCN(CC(=O)O)CC2)CC1)C(C)C)C(N)=O` [[^177Lu]Lu-[Hse^7]RM2, metal not drawn] ({DOTA}-[X1][dF][hSer]WAVGH[Sta]L-NH2), the “Intact compound in murine serum in vivo, 15 min after injection” value [1] is reported as < 20% and ~ 19%, the “Intact compound in murine serum in vivo, 30 min after injection” value [1] is reported as “did not show any intact; also recorded: could not detect any intact” and the tissue uptake at 1 h [2, 3] is reported as 1.2 ± 0.5 %ID/g. For the same molecule, the tissue uptake at 24 h [2, 3] was 0.61 ± 0.21 %ID/g, the tissue uptake at 1 h [2, 4] was 1 ± 0.2 %ID/g and the tissue uptake at 24 h [2, 4] was 0.02 %ID/g. The tissue uptake at 1 h ([2]; bone, read-out: Uptake in Bone) was 0.2 %ID/g, the tissue uptake at 24 h ([2]; bone, read-out: Uptake in Bone) was 2.37 ± 1.13 %ID/g and the tissue uptake at 1 h [2, 5] was 0.4 ± 0.1 %ID/g. For the same molecule, the tissue uptake at 24 h [2, 5] was 0.11 ± 0.03 %ID/g, the tissue uptake at 1 h [2, 6] was 1.6 ± 0.2 %ID/g and the tissue uptake at 24 h [2, 6] was 0.38 ± 0.11 %ID/g. It also gave a tissue uptake at 1 h [2, 7] of 4.8 ± 0.3 %ID/g, a tissue uptake at 24 h [2, 7] of 1.94 ± 0.28 %ID/g and a tissue uptake at 1 h [2, 8] of 0.9 ± 0.1 %ID/g. It also gave a tissue uptake at 24 h [2, 8] of 0.96 ± 0.15 %ID/g, a tissue uptake at 1 h ([2]; lung, read-out: Uptake in Lung) of 0.9 ± 0.2 %ID/g and a tissue uptake at 24 h ([2]; lung, read-out: Uptake in Lung) of 0.17 ± 0.02 %ID/g. For the same molecule, the tissue uptake at 1 h [2, 9] was 0.2 %ID/g, the tissue uptake at 24 h [2, 9] was 0.01 %ID/g and the tissue uptake at 1 h [2, 10] was 8 ± 0.5 %ID/g. It also gave a tissue uptake at 24 h [2, 10] of 0.14 ± 0.01 %ID/g, a tissue uptake at 1 h [2, 11] of 0.6 ± 0.2 %ID/g and a tissue uptake at 24 h [2, 11] of 0.36 ± 0.03 %ID/g. It also gave a tissue uptake at 1 h [2, 12] of 2.2 ± 0.3 %ID/g, a tissue uptake at 24 h [2, 12] of 0.26 ± 0.01 %ID/g and a tissue uptake at 1 h [2, 13] of 16.6 ± 1.6 %ID/g. The tissue uptake at 24 h [2, 13] was roughly 2 %ID/g and the “Specificity of tumor accumulation (competition with excess of Lu-RM2)” value (PC-3 tumor xenograft) was “specific”.

With `CC(C)C[C@H](NC(=O)C[C@H](O)[C@H](CC(C)C)NC(=O)[C@H](Cc1c[nH]cn1)NC(=O)CNC(=O)[C@@H](NC(=O)[C@H](C)NC(=O)[C@H](Cc1csc2ccccc12)NC(=O)[C@H](CCC(N)=O)NC(=O)[C@@H](Cc1ccccc1)NC(=O)CN1CCC(NC(=O)CN2CCN(CC(=O)O)CCN(CC(=O)O)CCN(CC(=O)O)CC2)CC1)C(C)C)C(N)=O` [[^177Lu]Lu-[Bta^8]RM2, metal not drawn] ({DOTA}-[X1][dF]Q[Bta]AVGH[Sta]L-NH2) the “Intact compound in murine serum in vivo, 15 min after injection” value [1] was < 20% and ~ 10%, the “Intact compound in murine serum in vivo, 30 min after injection” value [1] was “did not show any intact; also recorded: could not detect any intact” and the tissue uptake at 1 h [2, 3] was 1.1 ± 0.1 %ID/g. The tissue uptake at 24 h [2, 3] was 0.59 ± 0.33 %ID/g, the tissue uptake at 1 h [2, 4] was 1.6 ± 0.1 %ID/g and the tissue uptake at 24 h [2, 4] was 0.04 ± 0.04 %ID/g. It also gave a tissue uptake at 1 h ([2]; bone, read-out: Uptake in Bone) of 0.9 %ID/g, a tissue uptake at 24 h ([2]; bone, read-out: Uptake in Bone) of 2.58 ± 1.05 %ID/g and a tissue uptake at 1 h [2, 5] of 0.7 %ID/g. For the same molecule, the tissue uptake at 24 h [2, 5] was 0.09 ± 0.01 %ID/g, the tissue uptake at 1 h [2, 6] was 1 ± 0.3 %ID/g and the tissue uptake at 24 h [2, 6] was 0.28 ± 0.07 %ID/g. The tissue uptake at 1 h [2, 7] was 4.4 ± 0.4 %ID/g, the tissue uptake at 24 h [2, 7] was 2.07 ± 0.23 %ID/g and the tissue uptake at 1 h [2, 8] was 1.1 ± 0.1 %ID/g. It also gave a tissue uptake at 24 h [2, 8] of 0.77 ± 0.09 %ID/g, a tissue uptake at 1 h ([2]; lung, read-out: Uptake in Lung) of 1.8 ± 0.2 %ID/g and a tissue uptake at 24 h ([2]; lung, read-out: Uptake in Lung) of 0.22 ± 0.11 %ID/g. For the same molecule, the tissue uptake at 1 h [2, 9] was 0.2 ± 0.1 %ID/g, the tissue uptake at 24 h [2, 9] was 0.02 ± 0.02 %ID/g and the tissue uptake at 1 h [2, 10] was 3.7 ± 1.4 %ID/g. The tissue uptake at 24 h [2, 10] was 0.17 ± 0.02 %ID/g, the tissue uptake at 24 h [2, 11] was 0.32 ± 0.06 %ID/g and the tissue uptake at 1 h [2, 12] was 1.3 ± 0.3 %ID/g. For the same molecule, the tissue uptake at 24 h [2, 12] was 0.27 ± 0.08 %ID/g, the tissue uptake at 1 h [2, 13] was 12.1 ± 1.8 %ID/g and the tissue uptake at 24 h [2, 13] was roughly 2 %ID/g. The “Specificity of tumor accumulation (competition with excess of Lu-RM2)” value (PC-3 tumor xenograft) was “specific”.
